Reference: ChEMBL document CHEMBL1141750, “Phenanthroindolizidine alkaloids from the stems of Ficus septica” (2005)

How the values were obtained:
NUGC = assay: Cytotoxicity against human NUGC at 10 uM after 3 days by MTS reduction assay; format: functional; conditions: 72 h
[1] = Cytotoxicity against human HONE1 at 10 uM after 3 days by MTS reduction assay; format: functional; conditions: HONE1, 72 h

`COc1cc2c3c(c4ccc(OC)c(OC)c4c2cc1OC)C[N@@+]1([O-])CCC[C@@H]1C3` gave an inhibition at 10 µM (NUGC) of 94% and an inhibition at 10 µM [1] of 92%.

In the case of `COc1cc2c3c(c4ccc(OC)c(OC)c4c2cc1OC)C[C@H]1CCC[N@+]1([O-])C3`, the inhibition at 10 µM (NUGC) is reported as 93% and the inhibition at 10 µM [1] is reported as 87%.

In the case of `COc1cc2c3c(c4cc(OC)c(OC)cc4c2cc1OC)CN1CCC[C@@H]1C3` [TYLOPHORINE], the inhibition at 10 µM (NUGC) is reported as 85% and the inhibition at 10 µM [1] is reported as 80%.
